# Assay results reported in patent publication US10131643B2, “Tizoxanide carbamate and pharmaceutical use thereof” (priority 2013, dated 2018).
# Key:
# Helicobacter pylori = details: 103 strains of Helicobacter pylori; cited from earlier work
# [1] = oral administration in mice, in words; for Parameters such as Tmax, Cmax, MRT, AUC and relative bioavailability compared with nitazoxanide: calculated as tizoxanide
# [2] = tested on: Mycobacterium tuberculosis; details: cited from earlier work
# [3] = rat, in vivo, po
# PR8 influenza virus = PR8 influenza virus in MDCK cells; cited from earlier work
# [4] = in vivo, cited from earlier work
SMILES,"Parameters such as Tmax, Cmax, MRT, AUC and relative bioavailability compared with nitazoxanide [1]",Oral absorption compared with the control agent nitazoxanide (NTZ) [1],other results
O=C(Nc1ncc([N+](=O)[O-])s1)c1ccccc1O [tizoxanide],,,50% minimal inhibitory concentration (MIC50) (Helicobacter pylori): 1 µg/mL; 90% minimal inhibitory concentration (MIC90) (Helicobacter pylori): 4 µg/mL
"O=C(Nc1ncc([N+](=O)[O-])s1)c1ccccc1OC(=O)N1CCOCC1 [Compound 1, 2-(5-nitrothiazol-2-yl-carbamoyl)phenylmorpholine-4-carboxylate]",significantly superior,much better,
"O=C(Nc1ncc([N+](=O)[O-])s1)c1ccccc1OC(=O)N1CCCC1 [Compound 4, 2-((5-nitrothiazol-2-yl)carbamoyl)phenyl-pyrrolidine-1-carboxylate]",significantly superior,much better,
CN(C)C(=O)Oc1ccccc1C(=O)Nc1ncc([N+](=O)[O-])s1 [Compound 6],significantly superior,much better,
"CC(=O)Oc1ccccc1C(=O)Nc1ncc([N+](=O)[O-])s1 [NTZ, 2-acetoxy-N-(5-nitro-2-thiazolyl)benzamide]",,,"Minimal inhibitory concentration (MIC), median value [2]: 16 µg/mL; Absolute bioavailability [3]: 7.2%; 50% minimal inhibitory concentration (MIC50) (Helicobacter pylori): 1 µg/mL; 90% minimal inhibitory concentration (MIC90) (Helicobacter pylori): 4 µg/mL; EC50 (PR8 influenza virus): 1 µg/mL; EC90 (PR8 influenza virus): 7 µg/mL; Detection of the parent drug in plasma, urine, bile and feces ([4]; po): not detectable; Part of the oral dose excreted by feces [4]: about ⅔; Part of the oral dose excreted by urine [4]: about ⅓"
O=C(Nc1ncc([N+](=O)[O-])s1)c1ccccc1OC(=O)N1CCCCC1 [Compound 3],significantly superior,much better,
CCOC(=O)C1CCN(C(=O)Oc2ccccc2C(=O)Nc2ncc([N+](=O)[O-])s2)CC1 [Compound 5],comparable,faster,
"CN1CCN(C(=O)Oc2ccccc2C(=O)Nc2ncc([N+](=O)[O-])s2)CC1 [Compound 2, 2-(5-nitrothiazol-2-yl-carbamoyl)phenyl-4-methylpiperazine-1-carboxylate]",significantly superior,faster,
